From patent publication US9066518B2, “Heterocyclic compounds as pesticides” (Bayer CropScience AG, priority 2009, dated 2015) come the findings set out here.

Series [1] in a line: physchem.
The subject of series [2] is green peach aphid (Myzus persicae). Put plainly: Myzus test (spray treatment). It is filed as in vivo. The settings on record: foliar, 144 h, read-out: activity (effect in %, aphids killed). The protocol:
(§1) Solvents: 78 parts by weight of acetone
• 1.5 parts by weight of dimethylformamide Emulsifier 0.5 part by weight of alkylaryl polyglycol ether
To produce a suitable preparation of active compound, 1 part by weight of active compound is mixed with the stated amounts of solvents and emulsifier, and the concentrate is diluted with emulsifier-containing water to the desired concentration. Discs of leaves of Chinese cabbage (Brassica pekinensis) which are infested by all stages of the green peach aphid (Myzus persicae) are sprayed with an active compound preparation of the desired concentration.
After 6 days, the effect in % is determined. 100% means that all aphids have been killed; 0% means that none of the aphids has been killed.

Series [3] relates to caterpillars of the armyworm (Spodoptera frugiperda). The experiment in a line: Spodoptera frugiperda test (spray treatment). The settings on record: application rate 500 g/ha; after 7 days; maize leaf discs. It is filed as in vivo. The protocol: as §1
(§2) • 1.5 parts by weight of dimethylformamide Emulsifier: 0.5 part by weight of alkylaryl polyglycol ether
To produce a suitable preparation of active compound, 1 part by weight of active compound is mixed with the stated amounts of solvents and emulsifier, and the concentrate is diluted with emulsifier-containing water to the desired concentration. Discs of maize leaves (Zea mays) are sprayed with an active compound preparation of the desired concentration and, after drying, populated with caterpillars of the armyworm (Spodoptera frugiperda).
After 7 days, the effect in % is determined. 100% means that all caterpillars have been killed; 0% means that none of the caterpillars has been killed.

Series [4] is described as follows: logP determination (neutral / HCOOH). Conditions: for chromatographic logP: HCOOH (formic acid), logP (HCOOH); for logP: logP (neutral), neutral.
In series [5] the test system is larvae of the mustard beetle (Phaedon cochleariae). Put plainly: Phaedon test (spray treatment). It is filed as in vivo. Conditions: application rate 500 g/ha; after 7 days; Chinese cabbage leaf discs. From the text: Solvents: 78 parts by weight of acetone • • 1.5 parts by weight of dimethylformamide Emulsifier: 0.5 part by weight of alkylaryl polyglycol ether […] Discs of leaves of Chinese cabbage (Brassica pekinensis) are sprayed with an active compound preparation of the desired concentration and, after drying, populated with larvae of the mustard beetle (Phaedon cochleariae).

The subject of series [6] is greenhouse red spider mite (Tetranychus urticae). The experiment in a line: Tetranychus test; OP-resistant (spray treatment). The series is classed as in vivo. Conditions: application rate 500 g/ha, after 6 days, bean leaf discs. Here is the method: as §1, §2
To produce a suitable preparation of active compound, 1 part by weight of active compound is mixed with the stated amounts of solvents and emulsifier, and the concentrate is diluted with emulsifier-containing water to the desired concentration. Discs of bean leaves (Phaseolus vulgaris) which are infested by all stages of the greenhouse red spider mite (Tetranychus urticae) are sprayed with an active compound preparation of the desired concentration.
After 6 days, the effect in % is determined. 100% means that all spider mites have been killed; 0% means that none of the spider mites has been killed.

The mark [7] stands for this setting: application rate 500 g/ha, after 6 days, Chinese cabbage leaf discs.

Structures are written as SMILES. Read-outs that look alike come from different tables or passages of the source.

In series [1], `c1cnc(-c2cccc(-c3cnn(-c4cccnc4)c3)n2)nc1` [Example 1, 2-[6-(1-Pyridin-3-yl-1H-pyrazol-4-yl)pyridin-2-yl]pyrimidine] had a chromatographic logP of 1.36 and a lipophilicity (logP) of 1.52. Also, the pest or weed control at 500 g/ha in series [2] (in Brassica rapa) was 100%.

In the case of `c1cncc(-n2cc(-c3cccc(-c4ncon4)n3)cn2)c1` [Example 5, 2-[1,2,4]Oxadiazol-3-yl-6-(1-pyridin-3-yl-1H-pyrazol-4-yl)pyridine], the lipophilicity (logP) in series [1] stood at 1.54. In series [2] (in Brassica rapa), the pest or weed control at 500 g/ha worked out at 100%.

Regarding `c1cncc(-n2cc(-c3cccc(-c4nccnn4)n3)cn2)c1` [Example 7, 3-[6-(1-Pyridin-3-yl-1H-pyrazol-4-yl)pyridin-2-yl]-[1,2,4]triazine], the logP in series [1] stood at 1.32. For the same compound, the pest or weed control at 500 g/ha in series [2] (in Brassica rapa) was determined as 100%.

Consider `Cn1c(C(F)(F)F)nn(-c2cccc(-c3cnn(-c4cccnc4)c3)n2)c1=O` [Example 16], for which, in series [3], the “activity (effect in %, caterpillars killed)” value stood at 100%. Besides, the chromatographic logP in series [4] (HCOOH) turned out to be 2.1. Also, in series [2] (setting [7]), the pest or weed control at 500 g/ha came to 90%. Besides, in series [5], the “activity (effect in %, beetle larvae killed)” value amounted to 100%.

With `FC(F)(F)c1ccc(-c2cnn(-c3cccnc3)c2)nc1` [Example 22], in series [4] (HCOOH), the chromatographic logP turned out to be 2.38. Besides, in series [2] (setting [7]), the pest or weed control at 500 g/ha was 100%. Further, in series [5], the “activity (effect in %, beetle larvae killed)” value is given as 100%.

As for `COC(=O)CN(C)c1cccc(-c2cnn(-c3cccnc3)c2)n1` [Example 32], the “activity (effect in %, caterpillars killed)” value in series [3] is 100%. For the same compound, the chromatographic logP in series [4] (HCOOH) amounted to 2.18. The pest or weed control at 500 g/ha in series [2] (setting [7]) stood at 100%.

In series [4] (HCOOH), `c1cnc(-c2cccc(-c3cnn(-c4cncnc4)c3)n2)nc1` [Example 34] had a chromatographic logP of 1.17. Further, the pest or weed control at 500 g/ha in series [2] (setting [7]) was 100%. The “activity (effect in %, spider mites killed)” value in series [6] stood at 90%.

In the case of `N#CCNC(=O)c1ccc(-c2cnn(-c3cccnc3)c2)nc1` [Example 97], in series [4] (HCOOH), the chromatographic logP came to 0.95. This compound gave a log partition coefficient (logP) in series [4] of 1.2. Also, in series [2] (setting [7]), the pest or weed control at 500 g/ha was 90%.

Consider `c1cncc(-n2cc(-c3cc[nH]n3)cn2)c1` [Example 98, 1′-(Pyridin-3-yl)-1H,1′H-3,4′-bipyrazole], for which, in series [4] (HCOOH), the “logP (HCOOH)” value came out at 0.78 and the chromatographic logP is 0.79. For the same compound, the pest or weed control at 500 g/ha in series [2] (setting [7]) came out at 100%.

With `CCOC(=O)c1cccc(-c2cnn(-c3cccnc3)c2)n1` [Example 99], the chromatographic logP in series [4] (HCOOH) is 1.83. In series [4], this compound gave a logP of 1.96. Besides, in series [2] (setting [7]), the pest or weed control at 500 g/ha turned out to be 100%.

The compound `CN1CCN(C(=O)c2cccc(-c3cnn(-c4cccnc4)c3)n2)CC1` [Example 100] yielded a chromatographic logP in series [4] (HCOOH) of 0.46. The pest or weed control at 500 g/ha in series [2] (setting [7]) came to 100%.

Consider `c1cncc(-n2cc(-c3ccncc3)cn2)c1` [Example 101], for which the chromatographic logP in series [4] (HCOOH) stood at 0.01. Besides, in series [4], the lipophilicity (logP) amounted to 1.24. Also, in series [2] (setting [7]), the pest or weed control at 500 g/ha was 100%.

`O=[N+]([O-])c1cnc(-n2ccc(-c3cnn(-c4cccnc4)c3)n2)nc1` [Example 102]: in series [4] (HCOOH), the chromatographic logP turned out to be 1.64. Also, the pest or weed control at 500 g/ha in series [2] (setting [7]) turned out to be 100%.

Turning to `O=C(Nc1cccc(-c2cnn(-c3cccnc3)c2)n1)C(F)(F)F` [Example 103], the chromatographic logP in series [4] (HCOOH) is 2.21. In series [4], the logP is 2.28. In addition, in series [2] (setting [7]), the pest or weed control at 500 g/ha is 90%.

Take `Fc1cccc(-c2cnn(-c3cccnc3)c2)n1` [Example 105]: in series [4] (HCOOH), the chromatographic logP came to 1.77. For the same compound, the pest or weed control at 500 g/ha in series [2] (setting [7]) worked out at 80%.

In turn, `Nc1cccc(-c2cnn(-c3cncc(F)c3)c2)n1` [Example 106] had a chromatographic logP in series [4] (HCOOH) of 0.64. In series [4], the logP turned out to be 1.59. Besides, in series [2] (setting [7]), the pest or weed control at 500 g/ha was 90%.

Take `FC(F)(F)c1cccc(-c2cnn(-c3cncnc3)c2)n1` [Example 107]: the chromatographic logP in series [4] (HCOOH) is 2.36. Further, in series [4], the logP turned out to be 2.38. In series [2] (setting [7]), the pest or weed control at 500 g/ha was 90%.

In turn, `N#Cc1cccc(-c2cnn(-c3cncc(F)c3)c2)n1` [Example 108] showed a chromatographic logP in series [4] (HCOOH) of 2.2. Moreover, in series [2] (setting [7]), the pest or weed control at 500 g/ha came to 90%.

With `O=C(NCC(F)(F)F)c1cnc(-c2cnn(-c3cccnc3)c2)cc1C(F)(F)F` [Example 109], the chromatographic logP in series [4] (HCOOH) was 2.11. Further, the lipophilicity (logP) in series [4] came to 2.18. Further, the pest or weed control at 500 g/ha in series [2] (setting [7]) amounted to 90%.

In series [4] (HCOOH), `O=Cc1cccc(-c2cnn(-c3cccnc3)c2)n1` [Example 110] came in with a chromatographic logP of 1.56. Besides, the pest or weed control at 500 g/ha in series [2] (setting [7]) was 80%.

For the compound `c1cncc(-n2cc(-c3cnn(-c4cccnc4)c3)cn2)c1` [Example 112], the chromatographic logP in series [4] (HCOOH) amounted to 1.37. Also, the pest or weed control at 500 g/ha in series [2] (setting [7]) was found to be 80%.

What is called chromatographic logP is a lipophilicity value derived from retention on a column. For orientation: logP means the decadic logarithm of the partition coefficient of the neutral form, usually between octanol and water. Read a high logP as higher lipophilicity.
